Source: article PMC11939276, “Identifying Baicalein as a Key Bioactive Compound in XueBiJing Targeting KEAP1: Implications for Antioxidant Effects” (Antioxidants, 2025)

Target: T1, KEAP1 (Homo sapiens, UniProt Q14145)
T1 construct: recombinant KEAP1 protein (Sino Biological No. 11981-HNCB)
Assay: SPR (Biacore X100, immobilized recombinant KEAP1); supported by CETSA-WB in MCF-7 lysate
Assay type: binding

T1 sequence (Q14145 whole entry): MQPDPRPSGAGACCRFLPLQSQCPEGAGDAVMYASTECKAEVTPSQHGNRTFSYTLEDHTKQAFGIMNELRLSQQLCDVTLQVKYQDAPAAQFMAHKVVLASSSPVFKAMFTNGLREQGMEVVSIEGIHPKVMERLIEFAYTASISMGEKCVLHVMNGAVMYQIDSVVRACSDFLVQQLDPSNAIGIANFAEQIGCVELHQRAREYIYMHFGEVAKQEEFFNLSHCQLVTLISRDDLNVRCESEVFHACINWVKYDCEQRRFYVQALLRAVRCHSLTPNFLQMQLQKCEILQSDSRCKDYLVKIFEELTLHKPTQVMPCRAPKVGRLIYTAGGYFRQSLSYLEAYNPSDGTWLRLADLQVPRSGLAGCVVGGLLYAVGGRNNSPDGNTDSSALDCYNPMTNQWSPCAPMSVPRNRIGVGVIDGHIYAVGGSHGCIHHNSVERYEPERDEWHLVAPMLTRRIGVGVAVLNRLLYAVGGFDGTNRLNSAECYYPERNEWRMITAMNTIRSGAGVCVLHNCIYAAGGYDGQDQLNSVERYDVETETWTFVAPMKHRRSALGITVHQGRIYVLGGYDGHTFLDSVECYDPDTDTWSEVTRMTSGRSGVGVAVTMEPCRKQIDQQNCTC

With `O=c1cc(-c2ccccc2)oc2cc(O)c(O)c(O)c12` [Baicalein] the Kd was 158 µM.
